Laboratory results as given in ChEMBL document CHEMBL4130502, “Discovery of thienopyrrolotriazine derivatives to protect mitochondrial function against Aβ-induced neurotoxicity” (Eur J Med Chem, 2017).

Columns and labels:
[1] = Cytotoxicity against mouse HT22 cells as cell viability at 5 uM after 24 hrs by MTT assay relative to control; type: cell-based, HT-22; settings: read-out: Activity
[2] = biological target: Translocator protein (Mus musculus) (UniProt P50637); assay: Inhibition of TSPO in mouse HT22 cells assessed as recovery of ATP production at 5 uM preincubated for 10 mins followed by amyloid beta (1 to 42) stimulation and measured after 7 hrs by luciferase based assay relative to control; type: cell-based; design: scale not given: the % may be the effect or the level left
[3] = biological target: Translocator protein (Mus musculus) (UniProt P50637); assay: Inhibition of TSPO in mouse HT22 cells assessed as reduction in amyloid beta (1 to 42) (unknown origin) induced mitochondrial permeability transition pore formation by measuring increase in green to red fluorescence ratio at 5 uM pretreated for 10 mins followed by amyloid beta (1 to 42) stimulation and measured at 1 hr interval for 3 hrs by JC-1 dye based fluorescence assay relative to control; type: cell-based; design: scale not given: the % may be the effect or the level left
CYP3A4 = CYP3A4 (Homo sapiens, UniProt P08684); assay: Inhibition of human CYP3A4 assessed as remaining enzyme activity at 10 uM preincubated for 5 mins followed by Vivid CYP substrate addition measured after 20 mins by fluorescence assay relative to control; type: ADME; settings: probe Vivid CYP substrate, read-out: Activity
Translocator protein = Translocator protein (Rattus norvegicus, UniProt P16257); assay: Displacement of [3H]PK11195 from TSPO in Sprague-Dawley rat cerebral cortex membranes after 60 mins by liquid scintillation counting analysis; design: species or system Membrane
CYP1A2 = biological target: T1, CYP1A2 (Homo sapiens, UniProt P05177); assay: Inhibition of human CYP1A2 assessed as remaining enzyme activity at 10 uM preincubated for 5 mins followed by Vivid CYP substrate addition measured after 20 mins by fluorescence assay relative to control; type: ADME; settings: probe Vivid CYP substrate, read-out: Activity
T1 sequence (P05177 whole entry): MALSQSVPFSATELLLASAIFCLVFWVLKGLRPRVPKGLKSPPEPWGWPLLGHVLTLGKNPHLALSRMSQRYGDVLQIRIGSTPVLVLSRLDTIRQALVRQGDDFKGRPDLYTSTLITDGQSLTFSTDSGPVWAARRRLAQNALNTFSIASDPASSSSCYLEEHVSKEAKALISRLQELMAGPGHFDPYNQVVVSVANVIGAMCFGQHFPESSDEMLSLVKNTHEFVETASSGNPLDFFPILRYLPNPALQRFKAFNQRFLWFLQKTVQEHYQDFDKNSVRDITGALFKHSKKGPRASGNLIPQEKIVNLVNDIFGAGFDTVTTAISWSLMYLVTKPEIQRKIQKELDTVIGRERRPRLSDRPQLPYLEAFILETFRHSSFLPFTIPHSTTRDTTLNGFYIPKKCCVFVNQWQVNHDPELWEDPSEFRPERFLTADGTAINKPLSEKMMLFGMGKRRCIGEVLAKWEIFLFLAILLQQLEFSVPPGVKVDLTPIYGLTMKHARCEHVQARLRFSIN

CYP2C9 = CYP2C9 (Homo sapiens, UniProt P11712); assay: Inhibition of human CYP2C9 assessed as remaining enzyme activity at 10 uM preincubated for 5 mins followed by Vivid CYP substrate addition measured after 20 mins by fluorescence assay relative to control; type: ADME; settings: probe Vivid CYP substrate, read-out: Activity
CYP2D6 = CYP2D6 (Homo sapiens, UniProt P10635); assay: Inhibition of human CYP2D6 assessed as remaining enzyme activity at 10 uM preincubated for 5 mins followed by Vivid CYP substrate addition measured after 20 mins by fluorescence assay relative to control; type: ADME; settings: probe Vivid CYP substrate, read-out: Activity
CYP2C19 = CYP2C19 (Homo sapiens, UniProt P33261); assay: Inhibition of human CYP2C19 assessed as remaining enzyme activity at 10 uM preincubated for 5 mins followed by Vivid CYP substrate addition measured after 20 mins by fluorescence assay relative to control; type: ADME; settings: probe Vivid CYP substrate, read-out: Activity
CYP2C19, sequence (P33261 whole entry): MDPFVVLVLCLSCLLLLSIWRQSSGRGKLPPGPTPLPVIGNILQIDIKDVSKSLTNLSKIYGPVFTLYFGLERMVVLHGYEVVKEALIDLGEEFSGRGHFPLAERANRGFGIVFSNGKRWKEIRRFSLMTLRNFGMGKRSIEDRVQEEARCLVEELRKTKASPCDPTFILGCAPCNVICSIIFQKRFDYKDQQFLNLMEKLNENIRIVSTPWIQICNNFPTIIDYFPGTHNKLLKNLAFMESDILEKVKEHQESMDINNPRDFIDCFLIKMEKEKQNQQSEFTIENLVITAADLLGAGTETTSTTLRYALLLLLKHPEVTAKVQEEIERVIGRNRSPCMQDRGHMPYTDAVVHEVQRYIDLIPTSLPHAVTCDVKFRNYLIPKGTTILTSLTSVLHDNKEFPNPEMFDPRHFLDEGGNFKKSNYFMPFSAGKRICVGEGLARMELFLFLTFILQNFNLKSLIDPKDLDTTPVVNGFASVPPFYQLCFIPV

CYP3A4, sequence (P08684 whole entry): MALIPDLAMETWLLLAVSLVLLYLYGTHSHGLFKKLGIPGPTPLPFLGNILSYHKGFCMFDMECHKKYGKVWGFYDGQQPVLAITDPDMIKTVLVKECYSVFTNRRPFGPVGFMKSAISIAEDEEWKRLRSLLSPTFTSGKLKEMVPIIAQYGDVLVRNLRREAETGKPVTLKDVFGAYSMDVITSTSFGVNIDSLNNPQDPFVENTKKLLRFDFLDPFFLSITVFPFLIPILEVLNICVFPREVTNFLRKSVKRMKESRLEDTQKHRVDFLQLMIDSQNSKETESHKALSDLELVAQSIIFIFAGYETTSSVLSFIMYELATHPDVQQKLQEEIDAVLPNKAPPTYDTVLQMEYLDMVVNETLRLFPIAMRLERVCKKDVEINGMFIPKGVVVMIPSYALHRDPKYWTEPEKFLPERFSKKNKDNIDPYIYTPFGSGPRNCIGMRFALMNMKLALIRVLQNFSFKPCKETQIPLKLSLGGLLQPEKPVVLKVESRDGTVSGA
Translocator protein (Mus musculus), sequence (P50637 whole entry, looked up): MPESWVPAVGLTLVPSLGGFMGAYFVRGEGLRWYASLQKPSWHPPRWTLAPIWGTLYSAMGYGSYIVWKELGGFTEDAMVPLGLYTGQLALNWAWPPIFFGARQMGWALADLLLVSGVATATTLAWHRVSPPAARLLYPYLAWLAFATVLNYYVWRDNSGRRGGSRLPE
Translocator protein, sequence (P16257 whole entry, looked up): as the sequence (P50637 whole entry, looked up) above, with P2S, E3Q, V67I, D77E, A110V, L113M, V149M, P168T counted along it
CYP2D6, sequence (P10635 whole entry): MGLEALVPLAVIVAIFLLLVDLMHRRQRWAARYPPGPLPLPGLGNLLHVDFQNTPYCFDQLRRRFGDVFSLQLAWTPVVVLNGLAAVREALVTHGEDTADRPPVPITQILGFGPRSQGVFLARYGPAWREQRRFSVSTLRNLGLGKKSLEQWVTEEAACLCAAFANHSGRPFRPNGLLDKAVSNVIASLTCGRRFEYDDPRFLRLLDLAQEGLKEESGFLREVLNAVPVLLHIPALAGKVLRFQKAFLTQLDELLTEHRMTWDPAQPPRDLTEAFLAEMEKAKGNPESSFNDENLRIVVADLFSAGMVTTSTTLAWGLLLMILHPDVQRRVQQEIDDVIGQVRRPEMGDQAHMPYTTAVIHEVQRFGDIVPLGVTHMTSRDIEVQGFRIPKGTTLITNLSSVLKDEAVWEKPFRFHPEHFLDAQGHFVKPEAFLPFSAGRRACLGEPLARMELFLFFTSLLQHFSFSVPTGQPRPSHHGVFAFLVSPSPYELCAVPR
CYP2C9, sequence (P11712 whole entry): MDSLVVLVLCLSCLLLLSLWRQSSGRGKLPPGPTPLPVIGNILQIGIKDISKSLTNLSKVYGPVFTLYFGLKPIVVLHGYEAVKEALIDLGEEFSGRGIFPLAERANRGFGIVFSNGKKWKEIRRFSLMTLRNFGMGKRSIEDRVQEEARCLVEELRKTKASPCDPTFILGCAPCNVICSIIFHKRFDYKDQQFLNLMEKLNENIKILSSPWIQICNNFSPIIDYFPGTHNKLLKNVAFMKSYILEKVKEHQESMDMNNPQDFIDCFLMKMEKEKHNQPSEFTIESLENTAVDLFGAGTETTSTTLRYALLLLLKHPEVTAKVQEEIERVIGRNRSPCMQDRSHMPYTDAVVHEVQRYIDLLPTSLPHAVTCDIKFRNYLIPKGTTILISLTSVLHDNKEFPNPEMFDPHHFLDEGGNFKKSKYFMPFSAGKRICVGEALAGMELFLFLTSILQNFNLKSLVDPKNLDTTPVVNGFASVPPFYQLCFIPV

Row | SMILES | viability at 24 h, 5 µM [1] [%] | Activity [2] [%] | Activity [3] [%] | also measured
1 | CCc1nnc(SCC(=O)Nc2ccc(OC)c(OC)c2)c2cc3sc(Cl)cc3n12 | 94 | 7 | 69 | 
2 | COC(=O)CN1C(=O)C2CCCCC2Sc2ncccc21 (stereo unspecified) |  |  | 0 | 
3 | Cc1ccc2c(c1)C(c1ccccc1)=NCC(=O)N2C |  |  | 1 | 
4 | C=CCN1C(=O)CN=C(c2ccc(C(C)(C)C)cc2)c2c1sc1c2CCCC1 |  |  | 14 | 
5 | CCc1nnc(SCC(=O)N(C)c2ccccc2)c2cc3sc(Cl)cc3n12 | 78 | 22 | 61 | 
6 | O=C(Cc1coc2ccc3ccccc3c12)NCc1ccco1 | 96 | -3 | 85 | 
7 | Cc1nnc(SCC(=O)N(C)c2ccccc2)c2cc3sccc3n12 | 99 | 25 | 56 | activity at 20 min, 10 µM (CYP3A4): 41.3%; IC50 (Translocator protein): 55.1 nM; activity at 20 min, 10 µM (CYP1A2): 46.8%; activity at 20 min, 10 µM (CYP2C9): 124%; activity at 20 min, 10 µM (CYP2D6): 48.8%; activity at 20 min, 10 µM (CYP2C19): 28.8%
8 | CCc1nnc(SCC(=O)Nc2ccccc2)c2cc3sc(Cl)cc3n12 | 95 | 4 | 66 | 
9 | CCc1nn(CC(=O)N(C)C)c(=O)c2cc3sccc3n12 | 98 | -3 | 12 | 
10 | CCN(C(=O)CCl)c1ncc(-c2ccc(OC)cc2)s1 |  |  | 0 | 
11 | CCc1nn(CC(=O)N2CCN(c3ccccc3)CC2)c(=O)c2cc3sccc3n12 | 91 | 9 | 56 | 
12 | C=CCN1C(=O)CN=C(c2cccs2)c2c1sc1c2CCC1 |  |  | 38 | 
13 | CCc1nn(CC(=O)N(C)c2ccccc2)c(=O)c2cc3sccc3n12 | 93 | -9 | 50 | 
14 | CCc1nnc(SCC(=O)Nc2ccc(OC)c(OC)c2)c2cc3sc(C)cc3n12 | 91 | 18 | 62 | activity at 20 min, 10 µM (CYP3A4): 44.7%; IC50 (Translocator protein): > 10000 nM; activity at 20 min, 10 µM (CYP1A2): 65.5%; activity at 20 min, 10 µM (CYP2C9): 50%; activity at 20 min, 10 µM (CYP2D6): 54.2%; activity at 20 min, 10 µM (CYP2C19): 30.9%
15 | CCOC(=O)C(C)N1C(=O)CN=C(c2ccc(OC)cc2)c2c1sc1c2CCCC1 (stereo unspecified) |  |  | 24 | 
16 | CCc1nn(CC(=O)N(CC)Cc2ccccc2)c(=O)c2cc3sccc3n12 | 100 | -11 | 57 | 
17 | Cc1ccc(S(=O)(=O)Nc2ccc3c(c2)sc(=O)n3C)c(C)c1 |  |  | 4 | 
18 | Cc1cc2c(cc3c(SCC(=O)Nc4ccccc4)nnc(C)n32)s1 | 88 | 19 | 58 | 
19 | CCN(Cc1ccccc1)C(=O)Cn1nc(C)n2c(cc3sc(C)cc32)c1=O | 90 | 9 | 45 | 
20 | C=CCN1C(=O)CN=C(c2ccccc2)c2c1sc(C)c2C | 93 | -2 | 75 | 

Row | SMILES | viability at 24 h, 5 µM [1] [%] | Activity [2] [%] | Activity [3] [%] | also measured
21 | Cn1c(SCC(=O)NCc2ccccc2)nnc1-c1cc2ccccc2o1 |  |  | 19 | 
22 | CCc1nnc(SCC(=O)N2CCN(c3ccccc3)CC2)c2cc3sccc3n12 | 68 | -4 | 53 | 
23 | CNC(=O)CN(c1ccc(Br)cc1)S(=O)(=O)c1ccc(C)cc1 |  |  | 35 | 
24 | CCc1nn(CC(=O)Nc2ccc(OC)c(OC)c2)c(=O)c2cc3sccc3n12 | 40 | -17 | 56 | 
25 | COc1ccc(NC(=O)Cn2nc(C)n3c(cc4sc(C)cc43)c2=O)cc1OC | 97 | -8 | 52 | 
26 | O=S(=O)(c1ccccc1Cl)N1CCCC1c1cccs1 (stereo unspecified) | 114 | -61 | 67 | 
27 | C=CCN1C(=O)CN=C(c2ccccc2C)c2cc(CC)sc21 |  |  | 0 | 
28 | Cc1ccc(S(=O)(=O)NCc2cccnc2)c(C)c1 |  |  | 0 | 
29 | COC(=O)C1CCc2ccccc2N1C(=O)c1ccc(OC)cc1 (stereo unspecified) |  |  | 38 | 
30 | CCc1nnc(SCC(=O)N2CCN(c3ccccc3)CC2)c2cc3sc(C)cc3n12 | 99 | 41 | 70 | activity at 20 min, 10 µM (CYP3A4): 20.6%; IC50 (Translocator protein): 2220 nM; activity at 20 min, 10 µM (CYP1A2): 40.1%; activity at 20 min, 10 µM (CYP2C9): 38.8%; activity at 20 min, 10 µM (CYP2D6): 81.7%; activity at 20 min, 10 µM (CYP2C19): 20.3%
31 | Cn1c(=O)oc2cc(NS(=O)(=O)Cc3ccco3)ccc21 | 103 | 14 | 41 | 
32 | CCCC(=O)n1nc(-c2ccco2)nc1S(=O)(=O)Cc1ccccc1 |  |  | 0 | 
33 | CCc1nnc(SCC(=O)NCc2ccccc2)c2cc3sc(C)cc3n12 | 29 | -3 | 55 | 
34 | CCc1nnc(SCC(=O)N(CC)Cc2ccccc2)c2cc3sc(C)cc3n12 | 82 | 25 | 67 | 
35 | CCOC(=O)C(C)N1C(=O)CN=C(c2cccc(C)c2)c2c1sc1c2CCCC1 (stereo unspecified) |  |  | 0 | 
36 | Cc1cc2c(cc3c(=O)n(CC(=O)N(C)C)nc(C)n32)s1 | 96 | 0 | 17 | 
37 | CN1C(=O)CN=C(c2ccc(Cl)cc2)c2cc(Cl)ccc21 [RO-54864] | 100 | 9 | 12 | 
38 | CCN(Cc1ccccc1)C(=O)CSc1nnc(C)n2c1cc1sccc12 | 99 | 8 | 63 | 
39 | COc1ccc(NC(=O)CSc2nnc(C)n3c2cc2sccc23)cc1OC | 99 | 0 | 55 | 
40 | CCc1nnc(SCC(=O)Nc2ccc(OC)c(OC)c2)c2cc3sccc3n12 | 82 | 14 | 56 | 

Row | SMILES | viability at 24 h, 5 µM [1] [%] | Activity [2] [%] | Activity [3] [%] | also measured
41 | Cc1nnc(SCC(=O)N2CCN(c3ccccc3)CC2)c2cc3sccc3n12 | 98 | 0 | 59 | 
42 | Cc1cc2c(cc3c(SCC(=O)NCc4ccccc4)nnc(C)n32)s1 | 61 | -50 | 35 | 
43 | Cc1cc2c(cc3c(=O)n(CC(=O)N(C)c4ccccc4)nc(C)n32)s1 | 100 | 17 | 41 | 
44 | CCc1nnc(SCC(=O)N(CC)Cc2ccccc2)c2cc3sccc3n12 | 99 | 1 | 56 | 
45 | COc1ccccc1C1NC(=S)NC(C)=C1C(=O)OCc1ccccc1 (stereo unspecified) | 88 | 0 | 56 | 
46 | O=C(COc1ccc(Cl)cc1)ON=C(c1ccccc1)c1ccccc1 |  |  | 0 | 
47 | COc1cc(-c2nnc(SCc3c(F)cccc3Cl)o2)cc(OC)c1OC | 94 | -3 | 65 | 
48 | Cc1nnc(SCC(=O)NCc2ccccc2)c2cc3sccc3n12 | 73 | 6 | 48 | 
49 | COC(=O)CN(c1ccc(C(C)C)cc1)S(=O)(=O)c1ccc(C)cc1 | 92 | -1 | 67 | 
50 | Cc1nnc(SCC(=O)Nc2ccccc2)c2cc3sccc3n12 | 96 | 5 | 59 | 
51 | Cc1cc2c(cc3c(SCC(=O)N(C)c4ccccc4)nnc(C)n32)s1 | 87 | 33 | 56 | 
52 | CCc1nnc(SCC(=O)Nc2ccccc2)c2cc3sccc3n12 | 91 | -3 | 48 | 
53 | CN1C(=O)CN=C(c2ccccc2)c2cc(Br)ccc21 |  |  | 0 | 
54 | Cc1cc2c(cc3c(SCC(=O)N4CCN(c5ccccc5)CC4)nnc(C)n32)s1 | 99 | -9 | 69 | 
55 | CCc1nnc(SCC(=O)NCc2ccccc2)c2cc3sccc3n12 | 54 | -15 | 50 | 
56 | CCOC(=O)C1=C(C)N/C(=C/c2ccccc2OCc2ccccc2)C1=O |  |  | 22 | 
57 | CCc1nnc(SCC(=O)N2CCN(c3ccccc3)CC2)c2cc3sc(Cl)cc3n12 | 99 | -2 | 50 | 
58 | Cc1noc(C)c1S(=O)(=O)NC(c1ccccc1)c1ccccc1 |  |  | 0 | 
